Experimental data: patent publication US20190059381A1, “METHOD FOR CONTROLLING PESTS OF SOYBEAN, CORN, AND COTTON PLANTS” (BASF SE, priority 2016, published 2019)
Read-outs that look alike come from different tables or passages of the source.

System: Brown Stink Bug (Euschistus heros)
Assay: Action on Brown Stink Bug (Euschistus heros) on sprayed soybean seedlings
Type: in vivo
Settings: for mortality at 1 ppm: 1 ppm a.i.; for mortality at 10 ppm: 10 ppm a.i.
Protocol: Action on Brown Stink Bug (Euschistus heros)
The active compound is dissolved at the desired concentration in a mixture of 1:1 (vol:vol) distilled water: acetone.
Soybean seedlings of Intacta® and BMX-Potencia with one pair of true leaves were sprayed with 2 ml solution using an airbrush. After dry, the plants in small pots were placed inside a transparent plastic cage and infested with 10 adults adult stage individuals. Treated cups were kept at about 25° C. Percent mortality was recorded after 3 and 7 days after application.

[1] = 72 h, BMX-POTENCIA soybean seedlings, 3 days after application, adults, read-out: mortality 3 DAA
[2] = 72 h, INTACTA soybean seedlings, 3 days after application, adults, read-out: mortality 3 DAA
[3] = 168 h, BMX-POTENCIA soybean seedlings, 7 days after application, adults, read-out: mortality 7 DAA
[4] = 168 h, BMX-POTENCIA soybean seedlings, 7 days after application, corrected according to Abbott, read-out: mortality (Abbott %) 7 DAA
[5] = 168 h, INTACTA soybean seedlings, 7 days after application, adults, read-out: mortality 7 DAA
[6] = 168 h, INTACTA soybean seedlings, 7 days after application, corrected according to Abbott, read-out: mortality (Abbott %) 7 DAA

CCN1OC[C@@H](NC(=O)c2ccc(C3=NOC(c4cc(Cl)cc(Cl)c4)(C(F)(F)F)C3)cc2C)C1=O (stereo partly drawn) [Compound I.1]
mortality at 1 ppm [1]: 7.5%
mortality at 10 ppm [1]: 17.5%
mortality at 1 ppm [2]: 12.5%
mortality at 10 ppm [2]: 17.5%
mortality at 1 ppm [3]: 50%
mortality at 1 ppm [4]: 42.9%
mortality at 10 ppm [3]: 82.5%
mortality at 10 ppm [4]: 80%
mortality at 1 ppm [5]: 57.5%
mortality at 1 ppm [6]: 50%
mortality at 10 ppm [5]: 85%
mortality at 10 ppm [6]: 82.4%
